In patent publication US7423020B2, “Treatment of mood disorders by administration of SMR1” (Institut Pasteur, priority 2001, dated 2008):
Where a SMILES comes first, the peptide text is derived from it.

Target: T1, NEP (Rattus norvegicus, UniProt P07861)
T1 construct: incubations of membrane and fresh tissue slice preparations from nervous tissues; from tissue; host or cells: rat spinal cord (dorsal zone), fresh slices or 100 000 x g membrane fraction
T1 sequence (P07861 1-750): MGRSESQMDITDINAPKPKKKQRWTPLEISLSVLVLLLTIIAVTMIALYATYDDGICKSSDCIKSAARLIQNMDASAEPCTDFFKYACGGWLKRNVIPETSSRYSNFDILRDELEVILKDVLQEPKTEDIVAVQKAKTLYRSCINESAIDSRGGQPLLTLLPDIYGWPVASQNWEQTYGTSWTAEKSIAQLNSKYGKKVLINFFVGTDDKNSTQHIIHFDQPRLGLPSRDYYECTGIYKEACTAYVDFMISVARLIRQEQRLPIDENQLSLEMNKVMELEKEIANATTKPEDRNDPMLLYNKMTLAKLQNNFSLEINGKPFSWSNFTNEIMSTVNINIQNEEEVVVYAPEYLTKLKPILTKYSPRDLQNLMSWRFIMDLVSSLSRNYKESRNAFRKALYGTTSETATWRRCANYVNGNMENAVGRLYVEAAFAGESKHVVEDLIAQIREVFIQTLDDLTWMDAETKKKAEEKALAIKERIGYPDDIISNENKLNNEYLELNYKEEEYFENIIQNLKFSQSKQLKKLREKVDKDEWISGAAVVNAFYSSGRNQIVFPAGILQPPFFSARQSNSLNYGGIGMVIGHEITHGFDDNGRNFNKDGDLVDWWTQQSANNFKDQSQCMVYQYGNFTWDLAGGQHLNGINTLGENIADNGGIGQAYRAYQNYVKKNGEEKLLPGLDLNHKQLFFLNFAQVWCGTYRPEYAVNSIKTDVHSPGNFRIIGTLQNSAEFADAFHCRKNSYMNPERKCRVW
Assay: Met-enkephalin hydrolysis by rat spinal cord slices and membrane preparations, RP-HPLC analysis
Format: biochemical
Conditions: 10 μM; spinal cord slices; 20 min at 25° C.; Met-enkephalin 10 μM; read-out: inhibition of Met-enkephalin degradation (RP-HPLC)
Method: The organs are rapidly removed, dissected on ice, freed of nerve fibers and of adipose tissues and then washed in cold oxygenated glucose-and bicarbonate-containing Krebs Ringer (KRBG) solution, whose composition is the following: 120 mM NaCl-5 mM KCl-1.2 mM KH2PO4-27.5 mM NaHCO3-2.6 mM CaCl2-0.67 mM MgSO4-5.9 mM glucose. The slices of tissues are prepared either manually with the aid of a scalpel (1-2 mm thick), or mechanically with the aid of a “Tissue Chopper” (1 mm thick). Slices are then dispersed into reaction tubes where they are subjected to three successive washes in ice-cold oxygenated KRBG. […] The organs dissected out and washed in ice-cold KRBG are homogenized at 4° C. in 10 volumes (vol./wt.) of 50 mM Tris/HCl buffered at pH 7.2, using a Teflon-glass homogenizer (3×5 sec.). A first centrifugation of 5 min. at 1000×g and 4° C. makes it possible to remove the tissular debris and the nuclei in the pellet. A second centrifugation of the supernatant at 100 000×g and 5° C. concentrates the membrane fraction into the pellet, which will be superficially washed three times with cold Tris/HCl buffer and resuspended in fresh buffer using a Kontes homogenizer, aliquoted and stored at -80° C. while waiting to be used as enzyme source, at least until three months. For the experiments of analysis of the NEP peptidase activity, an ex vivo model using incubations of membrane and fresh tissue slice preparations from nervous tissues that are known to be appropriate for exploring NEP peptidase activity: i.e. the dorsal zone of rat spinal cord, was first developed. The metabolism rate of the NEP-sensitive peptides was measured using the both NEP substrates involved in the signaling of the nociceptive response: the neuropeptides Met-enkephalin and Substance P. […] (NEN, 12.5-25 nM) were used. The objective was to measure the NEP-specific endoproteolysis of these substrates. […] Furthermore, for studying the functional role of […] NO: 1), the reaction was carried out in the presence of the SMR1-peptide alone or combined with specific inhibitors of membrane peptidases which could inactivate the […] NO: 1) peptide by cleaving its C-terminal end: an inhibitor of carboxypeptidase […], 10 μM, Sigma) and an inhibitor of dipeptidylpeptidase IV (DPPIV inhibitor, 10 μM, Roche). […] Samples are kept at -30° C. until the measurement of their intact substrate and its metabolites content. The membrane preparations are preincubated in 50 mM Tris/HCl buffered at pH 7.2 and containing 10 μM Bestatin, at 25, 30 or 37° C. in constantly shaken water, in the presence or in the absence of NEP inhibitor. […] Samples are kept at -30° C. until the measurement of their intact substrate and its metabolites content. HPLC is a highly resolutive procedure that allows one to isolate, and detect by coupled spectrophotometer analysis, the non-radioactive peptides whose concentration is at least 1 to 10 μM. The C-18 RP-HPLC is based on the same principle as the C-18 Sep-Pak cartridge. The chromatographic analyses were used to study the hydrolysis of Met-Enkephalin, that were done on a C-18 LUNA analytical column (150×4.6 mm inner diameter, AIT) packed with 5 μm-diameter beads. […] Their identification and relative quantification (peak height) are checked by continuously monitoring the UV absorbance at 254 nm of column outflow. In first series of experiment, the slices and the membrane preparations of spinal cord tissues were incubated at 30° C. in a 1 ml final volume of KRBG, and at 37° C. in a 0.25 ml final volume of Tris/HCl 50 mM, pH 7.2, respectively.

inhibition at 10 µM: 70%
Structure (SMILES): N=C(N)NCCC[C@H](NC(=O)[C@@H]1CCCN1C(=O)[C@H](CC(N)=O)NC(=O)[C@H](Cc1c[nH]cn1)NC(=O)[C@@H](N)CCC(N)=O)C(=O)O [SMR1-QHNPR, QHNPR] (H-QHNPR-OH; N-terminus and C-terminus assumed)
